Experimental data taken from publication PMC9474705 (British journal of pharmacology, 2022).

Key:
[1] = molecular target: β2AR (β2AR stable cells) (Homo sapiens, UniProt P07550); assay: [3H]DHA competition on membranes; assay type: binding
[2] = molecular target: β1AR-RlucII (Homo sapiens, UniProt P08588); assay: BRET Gs; assay type: cell-based; conditions: agonist, […] min, mini-Gs
[3] = molecular target: β2AR-RlucII (Homo sapiens, UniProt P07550); assay: BRET Gs; assay type: cell-based; conditions: agonist, […] min, mini-Gs
β2AR-RlucII, sequence (P07550 whole entry): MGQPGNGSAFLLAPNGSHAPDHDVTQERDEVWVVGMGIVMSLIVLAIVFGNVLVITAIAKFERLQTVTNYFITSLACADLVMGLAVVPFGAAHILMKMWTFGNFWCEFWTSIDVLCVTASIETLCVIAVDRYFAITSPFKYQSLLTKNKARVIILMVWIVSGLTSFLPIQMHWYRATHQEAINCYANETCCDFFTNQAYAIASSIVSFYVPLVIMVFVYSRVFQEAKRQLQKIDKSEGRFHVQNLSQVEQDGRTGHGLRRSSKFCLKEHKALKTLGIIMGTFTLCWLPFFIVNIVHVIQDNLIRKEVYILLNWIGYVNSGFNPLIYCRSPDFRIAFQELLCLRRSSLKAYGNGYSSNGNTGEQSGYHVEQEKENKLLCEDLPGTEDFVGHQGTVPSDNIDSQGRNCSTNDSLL

β2AR (β2AR stable cells), sequence (P07550 whole entry): as above
β1AR-RlucII, sequence (P08588 whole entry): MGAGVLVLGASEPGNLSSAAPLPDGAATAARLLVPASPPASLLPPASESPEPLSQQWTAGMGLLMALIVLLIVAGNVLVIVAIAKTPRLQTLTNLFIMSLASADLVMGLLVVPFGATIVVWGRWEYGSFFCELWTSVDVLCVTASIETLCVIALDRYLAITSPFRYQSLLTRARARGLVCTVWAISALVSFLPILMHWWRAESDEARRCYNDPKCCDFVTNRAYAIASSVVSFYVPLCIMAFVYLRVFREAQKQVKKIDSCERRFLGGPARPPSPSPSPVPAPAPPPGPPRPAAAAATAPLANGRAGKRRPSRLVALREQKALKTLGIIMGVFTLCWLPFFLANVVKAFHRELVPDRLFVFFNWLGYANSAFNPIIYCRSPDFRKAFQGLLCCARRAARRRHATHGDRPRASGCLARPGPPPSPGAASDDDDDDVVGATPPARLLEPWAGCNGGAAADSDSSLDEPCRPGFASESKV

Row | IC50 [1] | SMILES | EC50 [2] | EC50 [3]
1 | 0.251 µM | CC(CCc1ccccc1)NC(C)C(O)c1ccc(O)cc1 (stereo not shown) [Buphenine] |  | 
2 | 5.01 µM | Oc1ccc(CC2NCCc3cc(O)c(O)cc32)cc1 (stereo not shown) [Higenamine] |  | 
3 | 5.01 µM | CC(CCc1ccc(O)cc1)NCCc1ccc(O)c(O)c1 (stereo not shown) [Dobutamine] | DOB was slightly more efficacious for β1AR | 
4 | 1.26 µM | CC(NCCc1ccc(O)cc1)C(O)c1ccc(O)cc1 (stereo not shown) [Ritodrine] |  | 
5 | 31.6 µM | CCCCNCC(O)c1ccc(O)cc1 (stereo not shown) [Bamethane] |  | all compounds showed efficacy in recruiting Gαs to the receptor
